Data reported in patent US8604217B2, “Compound, a process for its preparation, a pharmaceutical composition, use of a compound, a method for modulating or regulating serine/threonine kinases and a serine/threonine kinases modulating agent” (Selvita S.A., priority 2009, dated 2013).

What was measured:
Experiment in all cases: KinaseProfiler kinase panel
Type in all cases: biochemical
NLK(h) = NLK(h) (Homo sapiens (Human), UniProt Q9UBE8)
MuSK(h) = MuSK(h) (Homo sapiens (Human), UniProt O15146)
KDR(h) = KDR(h) (Homo sapiens (Human), UniProt P35968)
Sequence of KDR(h) (P35968 20-1356): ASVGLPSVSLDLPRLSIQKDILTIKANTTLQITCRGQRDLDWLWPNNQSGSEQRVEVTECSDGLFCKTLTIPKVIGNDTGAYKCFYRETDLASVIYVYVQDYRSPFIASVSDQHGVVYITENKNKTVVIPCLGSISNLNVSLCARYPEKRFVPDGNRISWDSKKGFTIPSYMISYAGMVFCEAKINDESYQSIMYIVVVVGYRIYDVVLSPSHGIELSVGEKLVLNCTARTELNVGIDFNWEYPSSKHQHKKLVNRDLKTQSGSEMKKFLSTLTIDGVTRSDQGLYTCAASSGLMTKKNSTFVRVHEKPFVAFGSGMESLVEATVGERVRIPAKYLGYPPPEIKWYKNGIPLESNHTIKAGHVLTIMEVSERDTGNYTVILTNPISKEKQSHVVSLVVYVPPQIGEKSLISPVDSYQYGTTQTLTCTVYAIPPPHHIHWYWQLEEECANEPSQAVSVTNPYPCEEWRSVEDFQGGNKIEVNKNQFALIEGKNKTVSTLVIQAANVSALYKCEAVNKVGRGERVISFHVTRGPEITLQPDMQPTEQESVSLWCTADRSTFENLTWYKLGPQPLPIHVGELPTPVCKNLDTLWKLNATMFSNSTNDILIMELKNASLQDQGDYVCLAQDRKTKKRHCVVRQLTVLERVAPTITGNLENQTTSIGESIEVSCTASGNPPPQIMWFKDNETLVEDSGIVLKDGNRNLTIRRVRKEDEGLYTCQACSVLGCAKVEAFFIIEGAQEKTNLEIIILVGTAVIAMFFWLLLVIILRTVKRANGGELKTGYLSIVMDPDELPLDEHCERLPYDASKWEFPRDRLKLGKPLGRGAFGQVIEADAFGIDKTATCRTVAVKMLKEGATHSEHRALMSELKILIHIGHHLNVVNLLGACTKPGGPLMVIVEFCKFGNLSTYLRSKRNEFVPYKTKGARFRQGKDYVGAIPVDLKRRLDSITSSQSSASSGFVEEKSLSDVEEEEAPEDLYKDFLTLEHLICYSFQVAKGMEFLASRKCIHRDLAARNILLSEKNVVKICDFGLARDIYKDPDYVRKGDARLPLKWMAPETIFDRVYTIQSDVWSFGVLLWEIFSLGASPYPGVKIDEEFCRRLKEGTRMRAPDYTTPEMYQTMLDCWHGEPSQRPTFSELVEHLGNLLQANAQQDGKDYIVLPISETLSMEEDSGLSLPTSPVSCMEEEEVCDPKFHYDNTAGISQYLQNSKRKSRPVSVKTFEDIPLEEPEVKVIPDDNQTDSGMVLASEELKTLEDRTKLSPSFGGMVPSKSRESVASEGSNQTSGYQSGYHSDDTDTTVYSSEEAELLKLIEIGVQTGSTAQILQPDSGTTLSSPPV

Fes(h) = Fes(h) (Homo sapiens (Human), UniProt P07332)
MKK6(h) = MKK6(h) (Homo sapiens (Human), UniProt P52564)
TSSK1(h) = TSSK1(h) (Homo sapiens (Human), UniProt Q9BXA7)
Sequence of TSSK1(h) (Q9BXA7 whole entry): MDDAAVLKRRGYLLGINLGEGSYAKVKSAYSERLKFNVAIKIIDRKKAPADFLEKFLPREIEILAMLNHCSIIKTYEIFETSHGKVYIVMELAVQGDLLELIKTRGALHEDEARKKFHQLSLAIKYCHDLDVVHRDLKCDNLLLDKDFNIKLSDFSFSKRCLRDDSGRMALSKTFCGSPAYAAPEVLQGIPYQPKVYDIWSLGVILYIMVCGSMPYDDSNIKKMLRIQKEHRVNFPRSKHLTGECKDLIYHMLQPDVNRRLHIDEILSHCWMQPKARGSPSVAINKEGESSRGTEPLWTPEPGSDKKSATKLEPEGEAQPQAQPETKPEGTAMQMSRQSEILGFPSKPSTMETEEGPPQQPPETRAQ

SRPK2(h) = SRPK2(h) (Homo sapiens (Human), UniProt P78362)
Sequence of SRPK2(h) (P78362 whole entry): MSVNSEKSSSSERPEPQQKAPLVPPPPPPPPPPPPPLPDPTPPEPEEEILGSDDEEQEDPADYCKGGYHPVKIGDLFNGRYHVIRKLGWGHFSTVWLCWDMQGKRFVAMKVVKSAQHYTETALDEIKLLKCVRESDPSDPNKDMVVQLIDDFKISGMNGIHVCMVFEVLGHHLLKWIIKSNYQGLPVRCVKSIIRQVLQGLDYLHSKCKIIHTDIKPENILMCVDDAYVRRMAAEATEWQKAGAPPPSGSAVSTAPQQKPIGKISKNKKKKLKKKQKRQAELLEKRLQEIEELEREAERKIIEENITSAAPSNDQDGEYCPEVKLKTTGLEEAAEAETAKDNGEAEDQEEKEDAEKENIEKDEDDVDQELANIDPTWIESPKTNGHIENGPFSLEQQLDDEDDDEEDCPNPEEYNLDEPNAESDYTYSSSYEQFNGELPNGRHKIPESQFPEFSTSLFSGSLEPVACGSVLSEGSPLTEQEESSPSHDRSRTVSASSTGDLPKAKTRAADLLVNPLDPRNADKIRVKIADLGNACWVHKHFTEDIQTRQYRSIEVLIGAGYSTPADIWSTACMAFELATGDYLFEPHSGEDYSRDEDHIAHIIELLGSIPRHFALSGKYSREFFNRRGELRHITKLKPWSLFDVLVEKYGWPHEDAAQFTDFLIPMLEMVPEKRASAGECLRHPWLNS

EphA1(h) = EphA1(h) (Homo sapiens (Human), UniProt P21709)
Pyk2(h) = Pyk2(h) (Homo sapiens (Human), UniProt Q14289)
Src(T341M)(h) = Src(T341M)(h) (Homo sapiens (Human), UniProt P12931, T341M)
Ret(V804M)(h) = Ret(V804M)(h) (Homo sapiens (Human), UniProt P07949, V804M)
MKK4(m) = MKK4(m) (Mus musculus (Mouse), UniProt P47809)
PKCζ(h) = PKCζ(h) (Homo sapiens (Human), UniProt Q05513)
PKCι(h) = PKCι(h) (Homo sapiens (Human), UniProt P41743)
Lck(h) activated = Lck(h) activated (Homo sapiens (Human), UniProt P06239)
Mnk2(h) = Mnk2(h) (Homo sapiens (Human), UniProt Q9HBH9)
Sequence of Mnk2(h) (Q9HBH9 whole entry): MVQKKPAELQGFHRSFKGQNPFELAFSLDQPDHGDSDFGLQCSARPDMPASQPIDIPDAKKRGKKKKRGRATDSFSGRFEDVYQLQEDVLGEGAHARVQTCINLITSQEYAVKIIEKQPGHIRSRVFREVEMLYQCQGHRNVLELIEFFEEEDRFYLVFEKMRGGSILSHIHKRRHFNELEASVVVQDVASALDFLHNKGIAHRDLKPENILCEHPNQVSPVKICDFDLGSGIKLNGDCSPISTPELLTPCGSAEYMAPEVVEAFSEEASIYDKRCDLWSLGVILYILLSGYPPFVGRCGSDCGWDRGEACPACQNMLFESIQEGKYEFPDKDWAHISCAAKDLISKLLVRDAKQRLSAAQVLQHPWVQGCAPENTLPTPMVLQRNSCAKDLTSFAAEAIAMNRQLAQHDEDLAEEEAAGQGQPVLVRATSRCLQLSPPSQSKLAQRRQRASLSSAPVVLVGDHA

PKCβII(h) = PKCβII(h) (Homo sapiens (Human), UniProt P05771)
JNK1α1(h) = JNK1α1(h) (Homo sapiens (Human), UniProt P45983)
PAK2(h) = PAK2(h) (Homo sapiens (Human), UniProt Q13177)
PAK4(h) = PAK4(h) (Homo sapiens (Human), UniProt O96013)
mTOR(h) = mTOR(h) (Homo sapiens (Human), UniProt P42345)
Met(Y1248D)(h) = Met(Y1248D)(h) (Homo sapiens (Human), UniProt P08581, Y1248D)
Ron(h) = Ron(h) (Homo sapiens (Human), UniProt Q04912)
TBK1(h) = TBK1(h) (Homo sapiens (Human), UniProt Q9UHD2)
ULK2(h) = ULK2(h) (Homo sapiens (Human), UniProt Q8IYT8)
PKCβI(h) = PKCβI(h) (Homo sapiens (Human), UniProt P05771)
TRKB(h) = TRKB(h) (Homo sapiens (Human), UniProt Q16620)
HIPK1(h) = HIPK1(h) (Homo sapiens (Human), UniProt Q86Z02)
EphA3(h) = EphA3(h) (Homo sapiens (Human), UniProt P29320)
MELK(h) = MELK(h) (Homo sapiens (Human), UniProt Q14680)
BTK(h) = BTK(h) (Homo sapiens (Human), UniProt Q06187)
Yes(h) = Yes(h) (Homo sapiens (Human), UniProt P07947)
CDK6/cyclinD3(h) = CDK6/cyclinD3(h) (Homo sapiens (Human), UniProt Q00534)
CHK2(I157T)(h) = CHK2(I157T)(h) (Homo sapiens (Human), UniProt O96017, I157T)
PRAK(h) = PRAK(h) (Homo sapiens (Human), UniProt Q8IW41)
Sequence of PRAK(h) (Q8IW41 whole entry): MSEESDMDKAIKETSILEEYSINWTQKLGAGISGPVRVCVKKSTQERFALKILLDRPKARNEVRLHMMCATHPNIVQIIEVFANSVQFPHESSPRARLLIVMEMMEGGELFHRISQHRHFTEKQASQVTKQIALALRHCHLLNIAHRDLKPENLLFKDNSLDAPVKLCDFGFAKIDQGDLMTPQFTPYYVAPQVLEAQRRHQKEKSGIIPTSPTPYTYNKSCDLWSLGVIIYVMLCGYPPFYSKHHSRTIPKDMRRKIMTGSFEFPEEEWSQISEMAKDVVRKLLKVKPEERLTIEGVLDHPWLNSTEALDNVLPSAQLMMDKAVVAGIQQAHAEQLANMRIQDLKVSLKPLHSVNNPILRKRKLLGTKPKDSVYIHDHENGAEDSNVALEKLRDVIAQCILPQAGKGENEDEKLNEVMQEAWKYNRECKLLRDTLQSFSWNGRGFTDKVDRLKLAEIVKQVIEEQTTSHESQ

CDK7/cyclinH/MAT1(h) = CDK7/cyclinH/MAT1(h) (Homo sapiens (Human), UniProt P50613)
ROCK-II(h) = ROCK-II(h) (Homo sapiens (Human), UniProt O75116)
ZIPK(h) = ZIPK(h) (Homo sapiens (Human), UniProt O43293)
cKit(h) = cKit(h) (Homo sapiens (Human), UniProt P10721)
Sequence of cKit(h) (P10721 26-976): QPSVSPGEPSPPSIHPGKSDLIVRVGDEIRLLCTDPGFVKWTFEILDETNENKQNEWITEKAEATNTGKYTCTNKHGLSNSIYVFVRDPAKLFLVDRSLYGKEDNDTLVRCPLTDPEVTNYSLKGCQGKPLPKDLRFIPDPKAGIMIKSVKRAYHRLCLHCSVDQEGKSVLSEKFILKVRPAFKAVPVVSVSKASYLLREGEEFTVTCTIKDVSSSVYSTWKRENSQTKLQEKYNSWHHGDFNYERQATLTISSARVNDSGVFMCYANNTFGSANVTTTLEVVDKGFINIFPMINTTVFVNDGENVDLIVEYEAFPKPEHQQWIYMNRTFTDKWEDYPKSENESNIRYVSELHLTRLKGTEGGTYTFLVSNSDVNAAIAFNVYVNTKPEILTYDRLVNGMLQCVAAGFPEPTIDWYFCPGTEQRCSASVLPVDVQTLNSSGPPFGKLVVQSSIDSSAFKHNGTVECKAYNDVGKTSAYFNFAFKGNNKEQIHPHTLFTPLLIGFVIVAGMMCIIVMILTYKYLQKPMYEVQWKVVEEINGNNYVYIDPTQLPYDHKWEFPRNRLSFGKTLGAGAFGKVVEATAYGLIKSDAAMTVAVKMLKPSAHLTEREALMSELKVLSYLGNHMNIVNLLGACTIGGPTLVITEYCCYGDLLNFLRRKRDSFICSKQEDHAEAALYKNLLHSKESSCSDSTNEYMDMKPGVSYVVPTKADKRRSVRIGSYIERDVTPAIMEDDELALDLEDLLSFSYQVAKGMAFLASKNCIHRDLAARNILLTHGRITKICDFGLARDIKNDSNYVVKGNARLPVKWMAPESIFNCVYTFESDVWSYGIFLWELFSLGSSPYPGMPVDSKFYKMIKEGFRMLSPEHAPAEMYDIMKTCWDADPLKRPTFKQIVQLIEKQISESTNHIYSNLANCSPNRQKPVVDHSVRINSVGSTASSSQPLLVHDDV

PKA(h) = PKA(h) (Homo sapiens (Human), UniProt P17612)

Sequence of NLK(h) (Q9UBE8 whole entry): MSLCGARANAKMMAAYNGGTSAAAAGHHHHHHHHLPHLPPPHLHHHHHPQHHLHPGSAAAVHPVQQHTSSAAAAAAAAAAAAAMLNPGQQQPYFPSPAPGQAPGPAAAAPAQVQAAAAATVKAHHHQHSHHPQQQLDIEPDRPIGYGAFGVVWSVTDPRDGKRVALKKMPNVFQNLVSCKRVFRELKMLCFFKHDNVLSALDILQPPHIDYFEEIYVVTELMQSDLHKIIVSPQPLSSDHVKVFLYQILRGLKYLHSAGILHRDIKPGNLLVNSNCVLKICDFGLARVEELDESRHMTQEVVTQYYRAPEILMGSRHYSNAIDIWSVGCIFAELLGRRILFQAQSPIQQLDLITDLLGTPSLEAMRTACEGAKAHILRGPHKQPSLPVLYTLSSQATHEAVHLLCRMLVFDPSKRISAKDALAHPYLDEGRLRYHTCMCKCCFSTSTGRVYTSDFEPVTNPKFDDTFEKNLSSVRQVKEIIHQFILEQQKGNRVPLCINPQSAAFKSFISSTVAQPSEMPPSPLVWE

CCn1c(N2CCNCC2)nc2c(Br)c(Br)c(Br)c(Br)c21 [Compound 416, 4,5,6,7-tetrabromo-1-ethyl-2-(piperazin-1-yl)-1H-benzo[d]imidazole]
remaining activity at 1 µM (NLK(h)): 85% | remaining activity at 1 µM (MuSK(h)): 103% | remaining activity at 1 µM (KDR(h)): 28% | remaining activity at 1 µM (Fes(h)): 52% | remaining activity at 1 µM (MKK6(h)): 43% | remaining activity at 1 µM (TSSK1(h)): 96% | remaining activity at 1 µM (SRPK2(h)): 102% | remaining activity at 1 µM (EphA1(h)): 75% | remaining activity at 1 µM (Pyk2(h)): 97% | remaining activity at 1 µM (Src(T341M)(h)): 40% | remaining activity at 1 µM (Ret(V804M)(h)): 20% | remaining activity at 1 µM (MKK4(m)): 100% | remaining activity at 1 µM (PKCζ(h)): 107% | remaining activity at 1 µM (PKCι(h)): 104% | remaining activity at 1 µM (Lck(h) activated): 69% | remaining activity at 1 µM (Mnk2(h)): 17% | remaining activity at 1 µM (PKCβII(h)): 98% | remaining activity at 1 µM (JNK1α1(h)): 97% | remaining activity at 1 µM (PAK2(h)): 95% | remaining activity at 1 µM (PAK4(h)): 79% | remaining activity at 1 µM (mTOR(h)): 95% | remaining activity at 1 µM (Met(Y1248D)(h)): 81% | remaining activity at 1 µM (Ron(h)): 108% | remaining activity at 1 µM (TBK1(h)): 104% | remaining activity at 1 µM (ULK2(h)): 88% | remaining activity at 1 µM (PKCβI(h)): 102% | remaining activity at 1 µM (TRKB(h)): 37% | remaining activity at 1 µM (HIPK1(h)): 8% | remaining activity at 1 µM (EphA3(h)): 94% | remaining activity at 1 µM (MELK(h)): 86% | remaining activity at 1 µM (BTK(h)): 107% | remaining activity at 1 µM (Yes(h)): 48% | remaining activity at 1 µM (CDK6/cyclinD3(h)): 91% | remaining activity at 1 µM (CHK2(I157T)(h)): 80% | remaining activity at 1 µM (PRAK(h)): 91% | remaining activity at 1 µM (CDK7/cyclinH/MAT1(h)): 25% | remaining activity at 1 µM (ROCK-II(h)): 81% | remaining activity at 1 µM (ZIPK(h)): 95% | remaining activity at 1 µM (cKit(h)): 121% | remaining activity at 1 µM (PKA(h)): 70%
